From the NIST ThermoML archive (doi:10.1021/je200628n)
± gives the expanded uncertainty stated by the source.

Assay: activity coefficient (dimensionless); of the first substance listed, at infinite dilution; xn = mol fraction of the nth substance listed
Conditions: 101 kPa, Liquid, Chromatography, x1 = 0

Row | activity coefficient (348.25 K) | activity coefficient (353.15 K) | activity coefficient (358.25 K) | activity coefficient (363.21 K) | activity coefficient (338.2 K) | activity coefficient (348.15 K) | activity coefficient (353.22 K) | activity coefficient (328.15 K) | activity coefficient (338.15 K) | activity coefficient (343.15 K) | Compound
1 | 1.55 ± 0.076 | 1.45 ± 0.07 | 1.35 ± 0.064 | 1.26 ± 0.058 | – | – | – | – | – | – | CCCOC(C)=O [propyl ethanoate] + NCCCCCCCCCCCCN
2 | – | – | – | – | – | 3.14 ± 0.16 | – | 4.24 ± 0.22 | 3.58 ± 0.18 | 3.33 ± 0.17 | C=CCCCCCCCC [1-decene] + NCCCCCCCCN
3 | – | – | – | – | 1.97 ± 0.1 | 1.78 ± 0.089 | 1.72 ± 0.085 | – | – | – | CCc1ccccc1 [ethylbenzene] + NCCCCCCCCCCN
4 | 0.931 ± 0.042 | 0.975 ± 0.043 | 1.04 ± 0.046 | 1.09 ± 0.049 | – | – | – | – | – | – | CCCO [propan-1-ol] + NCCCCCCCCCCCCN
5 | – | – | – | – | – | 3 ± 0.15 | – | 3.94 ± 0.2 | 3.38 ± 0.17 | 3.16 ± 0.16 | C=CCCCCCC [oct-1-ene] + NCCCCCCCCN
6 | 4.5 ± 0.23 | 4.27 ± 0.22 | 4.11 ± 0.21 | 3.94 ± 0.2 | – | – | – | – | – | – | CCCCCCCl [1-chlorohexane] + NCCCCCCCCCCCCN
7 | – | – | – | – | 4.09 ± 0.21 | 3.65 ± 0.19 | 3.45 ± 0.18 | – | – | – | C=CCCCCCC [oct-1-ene] + NCCCCCCCCCCN
8 | – | – | – | – | – | 4.36 ± 0.22 | – | 5.47 ± 0.28 | 4.82 ± 0.25 | 4.58 ± 0.23 | CCCCCCCCCC [decane] + NCCCCCCCCN
9 | – | – | – | – | 1.16 ± 0.053 | 0.951 ± 0.042 | 0.868 ± 0.04 | – | – | – | CCOC(C)=O [ethyl acetate] + NCCCCCCCCCCN
10 | – | – | – | – | – | 4.13 ± 0.21 | – | 4.73 ± 0.24 | 4.4 ± 0.23 | 4.24 ± 0.22 | CCCCCCCC [octane] + NCCCCCCCCN
11 | 5.05 ± 0.26 | 4.8 ± 0.25 | 4.47 ± 0.23 | 4.24 ± 0.22 | – | – | – | – | – | – | C=CCCCCCCCC [1-decene] + NCCCCCCCCCCCCN
12 | 2.5 ± 0.13 | 2.47 ± 0.13 | 2.42 ± 0.12 | 2.39 ± 0.12 | – | – | – | – | – | – | CCc1ccccc1 [ethylbenzene] + NCCCCCCCCCCCCN
13 | 6.11 ± 0.31 | 5.89 ± 0.3 | 5.74 ± 0.29 | 5.6 ± 0.29 | – | – | – | – | – | – | CCCCCCCCCC [decane] + NCCCCCCCCCCCCN
14 | – | – | – | – | 1.19 ± 0.054 | 1.09 ± 0.049 | 0.985 ± 0.043 | – | – | – | ClCCl [dichloromethane] + NCCCCCCCCCCN
15 | – | – | – | – | – | 3.72 ± 0.19 | – | 4.03 ± 0.21 | 3.83 ± 0.2 | 3.75 ± 0.19 | CCCCCC [hexane] + NCCCCCCCCN
16 | 4.86 ± 0.25 | 4.8 ± 0.25 | 4.74 ± 0.24 | 4.69 ± 0.24 | – | – | – | – | – | – | CCCCCC [hexane] + NCCCCCCCCCCCCN
17 | – | – | – | – | 1.39 ± 0.066 | 1.11 ± 0.05 | 0.991 ± 0.044 | – | – | – | CCCOC(C)=O [propyl ethanoate] + NCCCCCCCCCCN
18 | 4.83 ± 0.25 | 4.53 ± 0.23 | 4.33 ± 0.22 | 4.11 ± 0.21 | – | – | – | – | – | – | C=CCCCCCC [oct-1-ene] + NCCCCCCCCCCCCN

Row | activity coefficient (348.25 K) | activity coefficient (353.15 K) | activity coefficient (358.25 K) | activity coefficient (363.21 K) | activity coefficient (338.2 K) | activity coefficient (348.15 K) | activity coefficient (353.22 K) | activity coefficient (328.15 K) | activity coefficient (338.15 K) | activity coefficient (343.15 K) | Compound
19 | – | – | – | – | – | 2.02 ± 0.1 | – | 3.85 ± 0.2 | 2.73 ± 0.14 | 2.38 ± 0.12 | CCCCCCCl [1-chlorohexane] + NCCCCCCCCN
20 | – | – | – | – | 4.96 ± 0.26 | 4.55 ± 0.23 | 4.41 ± 0.23 | – | – | – | CCCCCC [hexane] + NCCCCCCCCCCN
21 | 4.28 ± 0.22 | 4.12 ± 0.21 | 3.93 ± 0.2 | 3.8 ± 0.2 | – | – | – | – | – | – | C=CCCCC [hex-1-ene] + NCCCCCCCCCCCCN
22 | – | – | – | – | – | 0.435 ± 0.029 | – | 0.384 ± 0.029 | 0.407 ± 0.029 | 0.42 ± 0.029 | CCO [ethanol] + NCCCCCCCCN
23 | – | – | – | – | – | 1.73 ± 0.087 | – | 2.71 ± 0.14 | 2.12 ± 0.11 | 1.92 ± 0.098 | CCCCCCl [1-chloropentane] + NCCCCCCCCN
24 | – | – | – | – | 5.05 ± 0.26 | 4.64 ± 0.24 | 4.46 ± 0.23 | – | – | – | CCCCCCC [heptane] + NCCCCCCCCCCN
25 | – | – | – | – | 4.34 ± 0.22 | 3.82 ± 0.2 | 3.57 ± 0.18 | – | – | – | C=CCCCCCCCC [1-decene] + NCCCCCCCCCCN
26 | – | – | – | – | – | 0.929 ± 0.042 | – | 1.29 ± 0.06 | 1.08 ± 0.048 | 0.997 ± 0.044 | CCCOC(C)=O [propyl ethanoate] + NCCCCCCCCN
27 | 2.08 ± 0.11 | 2.07 ± 0.11 | 2.06 ± 0.1 | 2.04 ± 0.1 | – | – | – | – | – | – | c1ccccc1 [benzene] + NCCCCCCCCCCCCN
28 | – | – | – | – | 0.622 ± 0.033 | 0.731 ± 0.036 | 0.772 ± 0.037 | – | – | – | CCCO [propan-1-ol] + NCCCCCCCCCCN
29 | – | – | – | – | 0.721 ± 0.035 | 0.774 ± 0.037 | 0.815 ± 0.038 | – | – | – | CCCCO [butan-1-ol] + NCCCCCCCCCCN
30 | 3.08 ± 0.16 | 2.91 ± 0.15 | 2.73 ± 0.14 | 2.68 ± 0.14 | – | – | – | – | – | – | CCCCCCl [1-chloropentane] + NCCCCCCCCCCCCN
31 | 5.54 ± 0.28 | 5.43 ± 0.28 | 5.27 ± 0.27 | 5.19 ± 0.27 | – | – | – | – | – | – | CCCCCCCC [octane] + NCCCCCCCCCCCCN
32 | 0.774 ± 0.037 | 0.841 ± 0.039 | 0.919 ± 0.041 | 1.01 ± 0.044 | – | – | – | – | – | – | CO [methanol] + NCCCCCCCCCCCCN
33 | – | – | – | – | 3.46 ± 0.18 | 2.81 ± 0.14 | 2.54 ± 0.13 | – | – | – | CCCCCCCl [1-chlorohexane] + NCCCCCCCCCCN
34 | – | – | – | – | – | 0.614 ± 0.033 | – | 0.567 ± 0.032 | 0.58 ± 0.032 | 0.593 ± 0.032 | CCCO [propan-1-ol] + NCCCCCCCCN
35 | – | – | – | – | 0.551 ± 0.032 | 0.634 ± 0.033 | 0.682 ± 0.035 | – | – | – | CO [methanol] + NCCCCCCCCCCN
36 | – | – | – | – | – | 1.72 ± 0.085 | – | 2.07 ± 0.11 | 1.86 ± 0.094 | 1.77 ± 0.089 | CCc1ccccc1 [ethylbenzene] + NCCCCCCCCN

Row | Compound | activity coefficient (348.25 K) | activity coefficient (353.15 K) | activity coefficient (358.25 K) | activity coefficient (363.21 K) | activity coefficient (338.2 K) | activity coefficient (348.15 K) | activity coefficient (353.22 K) | activity coefficient (328.15 K) | activity coefficient (338.15 K) | activity coefficient (343.15 K)
37 | Cc1ccccc1 [toluene] + NCCCCCCCCCCN | – | – | – | – | 2.52 ± 0.13 | 2.23 ± 0.12 | 2.13 ± 0.11 | – | – | –
38 | CCCCCl [1-chlorobutane] + NCCCCCCCCCCCCN | 2.71 ± 0.14 | 2.63 ± 0.14 | 2.56 ± 0.13 | 2.46 ± 0.13 | – | – | – | – | – | –
39 | CCCCOC(C)=O [butyl ethanoate] + NCCCCCCCCN | – | – | – | – | – | 1.05 ± 0.047 | – | 1.51 ± 0.073 | 1.25 ± 0.058 | 1.14 ± 0.052
40 | CCCCCl [1-chlorobutane] + NCCCCCCCCCCN | – | – | – | – | 2.38 ± 0.12 | 2.12 ± 0.11 | 2.01 ± 0.1 | – | – | –
41 | CCCCCl [1-chlorobutane] + NCCCCCCCCN | – | – | – | – | – | 1.48 ± 0.071 | – | 1.88 ± 0.095 | 1.65 ± 0.081 | 1.55 ± 0.075
42 | ClC(Cl)(Cl)Cl [tetrachloromethane] + NCCCCCCCCCCN | – | – | – | – | 2.25 ± 0.12 | 2.05 ± 0.1 | 1.98 ± 0.1 | – | – | –
43 | Cc1ccccc1 [toluene] + NCCCCCCCCN | – | – | – | – | – | 2.07 ± 0.11 | – | 2.39 ± 0.12 | 2.17 ± 0.11 | 2.11 ± 0.11
